# Data taken from ChEMBL document CHEMBL1143507, “Molecular-modeling based design, synthesis, and activity of substituted piperidines as gamma-secretase inhibitors” (Bioorg Med Chem Lett, 2005).
# Legend:
# [1] = biological target: T1, Amyloid-beta precursor protein (Homo sapiens, UniProt P05067); assay: In vitro effective concentration against beta amyloid protein 42 in ELISA; increase in presence of weak inhibitor
# Target sequence in this assay (P05067 whole entry, the tested form may be a part): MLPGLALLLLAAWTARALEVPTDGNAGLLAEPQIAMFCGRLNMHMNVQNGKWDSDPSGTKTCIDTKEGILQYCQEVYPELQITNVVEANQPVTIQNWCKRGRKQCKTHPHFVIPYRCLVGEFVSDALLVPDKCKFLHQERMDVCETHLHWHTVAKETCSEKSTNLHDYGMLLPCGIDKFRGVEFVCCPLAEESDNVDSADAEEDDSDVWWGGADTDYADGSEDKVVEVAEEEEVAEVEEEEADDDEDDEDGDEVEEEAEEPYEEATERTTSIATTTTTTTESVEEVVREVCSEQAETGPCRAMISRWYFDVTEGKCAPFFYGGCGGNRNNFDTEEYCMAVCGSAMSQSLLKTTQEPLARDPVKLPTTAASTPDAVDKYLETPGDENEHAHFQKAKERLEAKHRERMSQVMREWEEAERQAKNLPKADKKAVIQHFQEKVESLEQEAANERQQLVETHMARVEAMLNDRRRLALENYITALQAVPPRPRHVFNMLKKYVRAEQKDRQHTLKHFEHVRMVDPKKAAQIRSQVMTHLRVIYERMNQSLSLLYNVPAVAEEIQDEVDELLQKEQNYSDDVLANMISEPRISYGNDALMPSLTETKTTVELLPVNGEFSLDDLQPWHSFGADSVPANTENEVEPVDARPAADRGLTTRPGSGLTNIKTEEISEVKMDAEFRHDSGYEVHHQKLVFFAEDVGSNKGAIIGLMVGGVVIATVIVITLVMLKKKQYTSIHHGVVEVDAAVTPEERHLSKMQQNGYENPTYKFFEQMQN
# [2] = biological target: T1, Amyloid-beta precursor protein; assay: In vitro elevation of beta C-terminal fragment (Ct-99) in CHO cells expressing mutant Swedish NL human APP; assay type: functional, cell-based
# Target sequence in this assay (P05067 18-770 limits assumed): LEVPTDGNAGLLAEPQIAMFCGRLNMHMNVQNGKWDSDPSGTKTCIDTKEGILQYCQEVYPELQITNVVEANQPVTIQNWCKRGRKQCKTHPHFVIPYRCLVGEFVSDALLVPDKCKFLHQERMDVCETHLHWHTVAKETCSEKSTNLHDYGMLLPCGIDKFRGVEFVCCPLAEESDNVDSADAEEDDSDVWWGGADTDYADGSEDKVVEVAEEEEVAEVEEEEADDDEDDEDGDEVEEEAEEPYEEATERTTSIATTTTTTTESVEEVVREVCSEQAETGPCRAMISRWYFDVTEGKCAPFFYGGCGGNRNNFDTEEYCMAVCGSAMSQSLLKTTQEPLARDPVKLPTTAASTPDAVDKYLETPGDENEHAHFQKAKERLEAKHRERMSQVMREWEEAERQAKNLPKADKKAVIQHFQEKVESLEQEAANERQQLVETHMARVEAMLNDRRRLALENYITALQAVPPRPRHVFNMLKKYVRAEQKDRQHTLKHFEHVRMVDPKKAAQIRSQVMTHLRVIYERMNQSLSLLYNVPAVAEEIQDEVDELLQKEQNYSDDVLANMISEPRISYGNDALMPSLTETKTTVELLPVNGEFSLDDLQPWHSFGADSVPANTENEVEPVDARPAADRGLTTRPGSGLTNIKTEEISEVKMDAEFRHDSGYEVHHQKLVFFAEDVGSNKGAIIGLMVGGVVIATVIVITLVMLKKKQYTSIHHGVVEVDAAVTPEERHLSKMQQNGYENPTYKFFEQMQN
# [3] = biological target: T1, Amyloid-beta precursor protein; assay: In vitro reduction of Swedish NL mutant amyloid precursor protein activity expressed in CHO cells; assay type: functional, cell-based
# Target sequence in this assay (P05067 18-770 limits assumed): as above
# [4] = biological target: T1, Amyloid-beta precursor protein; assay: Percent inhibition of beta amyloid protein 40 activity in ELISA at 100 uM
# Target sequence in this assay (P05067 whole entry, the tested form may be a part): as the sequence (P05067 whole entry, the tested form may be a part) above
SMILES,EC50 [1],further results
CCOC(=O)N1CCC(c2ccccc2C)(S(=O)(=O)c2ccc(OC)cc2)CC1,Increase,
CCOC(=O)N1CCC(c2ccccc2)(S(=O)(=O)c2ccc(OC)cc2)CC1,Increase,
CCOC(=O)N1CCC(c2ccccc2OC)(S(=O)(=O)c2ccc(Cl)cc2)CC1,,EC50 [2]: 640 nM; EC50 [3]: 530 nM
CCOC(=O)N1CCC(c2ccccc2)(S(=O)(=O)c2ccccc2)CC1,Increase,inhibition [4]: 84%
CCOC(=O)N1CCC(c2ccccc2C)(S(=O)(=O)c2ccccc2)CC1,Increase,

# Now from value to compound, other results behind:
EC50 [1],SMILES,further results
Increase,CCOC(=O)N1CCC(c2ccccc2OC)(S(=O)(=O)c2ccc(OC)cc2)CC1,
Increase,CCOC(=O)N1CCC(c2ccccc2OC)(S(=O)(=O)c2ccccc2)CC1,
